Data as given in patent US7897602B2, “Indolinone compounds as kinase inhibitors” (Development Center for Biotechnology, priority 2009, dated 2011).
Where a name gives a salt, the structure may show the parent alone.

How the values were obtained:
Assay type in all cases: biochemical
Aurora A kinase = target: T1, Aurora A kinase (Homo sapiens, UniProt O14965); experiment: Aurora A kinase assay ([γ-33P]ATP, CHOCKtide substrate); settings: for inhibition at 1 µM: 1.0 μM test compound
T1 construct: purchased Upstate
T1 sequence (O14965 1-403): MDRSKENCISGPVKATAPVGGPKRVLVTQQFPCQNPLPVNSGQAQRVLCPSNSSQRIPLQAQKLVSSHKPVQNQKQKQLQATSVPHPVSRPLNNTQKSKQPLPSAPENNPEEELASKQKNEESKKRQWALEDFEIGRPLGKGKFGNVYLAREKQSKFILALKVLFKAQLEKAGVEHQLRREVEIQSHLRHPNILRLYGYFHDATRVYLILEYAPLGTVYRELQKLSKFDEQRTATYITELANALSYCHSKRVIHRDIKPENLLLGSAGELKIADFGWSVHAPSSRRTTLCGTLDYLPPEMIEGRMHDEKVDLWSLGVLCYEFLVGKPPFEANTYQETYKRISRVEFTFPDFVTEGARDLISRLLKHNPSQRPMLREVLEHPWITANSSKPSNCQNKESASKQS
Outline: (§1)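 Recombinant Aurora A (1 ng) or Aurora B (2.5 ng) incubated with test compound, CHOCKtide (1 μg) and [γ-33P]ATP/ATP at 10 μM (Aurora A) or 40 μM (Aurora B), 30 min at 33 °C. Stopped with phosphoric acid; filter-bound 33P counted; IC50 = half-maximal inhibition.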

VEGFR2 kinase = target: T2, VEGFR2 kinase (Homo sapiens, UniProt P35968); experiment: VEGFR2 kinase assay (33P incorporation into Poly(Glu-Tyr)); settings: 500 nM test compound; read-out: Inhibition at 500 nM (%) VEGFr-2
T2 construct: recombinant N-terminal 6×His-tagged VEGFR2 kinase domain construct expressed by baculovirus; 6xHis (N); made in house
Outline: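 Recombinant baculovirus-expressed N-terminal His6-tagged VEGFR2 kinase domain (6.25 ng) phosphorylated poly(Glu-Tyr) 4:1 with 100 μM ATP plus [33P]-γ-ATP in MOPS pH 7.0, 30 °C, 30 min. Test compound was at 500 nM (4% DMSO). Filter-retained radioactivity relative to DMSO control gave % inhibition.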

Aurora B kinase = target: T3, Aurora B kinase (Homo sapiens, UniProt Q96GD4); experiment: Aurora B kinase assay ([γ-33P]ATP, CHOCKtide substrate); settings: for inhibition at 1 µM: 1.0 μM test compound
T3 construct: purchased Cell signaling
Outline: as §1

Flt3 kinase = target: T4, Flt3 kinase (Homo sapiens, UniProt P36888); experiment: Flt3 kinase assay (33P incorporation into Poly(Glu-Tyr)); settings: 100 nM test compound; read-out: Inhibition at 100 nM (%) Flt-3
T4 construct: recombinant N-terminal 6×His-tagged Flt3 kinase domain construct expressed from baculovirus; 6xHis (N); made in house
T4 sequence (P36888 610-943 limits assumed): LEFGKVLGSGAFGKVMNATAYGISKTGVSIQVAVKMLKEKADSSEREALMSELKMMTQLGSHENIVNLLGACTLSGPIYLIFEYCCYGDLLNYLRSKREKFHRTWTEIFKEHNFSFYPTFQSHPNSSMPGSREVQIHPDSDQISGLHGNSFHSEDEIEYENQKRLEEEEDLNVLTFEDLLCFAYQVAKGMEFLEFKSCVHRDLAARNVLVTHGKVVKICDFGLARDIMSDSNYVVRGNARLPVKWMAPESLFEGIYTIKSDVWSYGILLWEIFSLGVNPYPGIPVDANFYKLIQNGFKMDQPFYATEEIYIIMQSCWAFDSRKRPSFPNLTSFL
Outline: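 Baculovirus-expressed His-tagged Flt3 kinase domain (5 ng) with Poly(Glu-Tyr) 4:1 substrate, 100 μM ATP plus [33P]-γ-ATP, in MOPS pH 7.0 buffer, 30 min at 30 °C. Compound tested at a single 100 nM concentration; filter-bound radioactivity counted and percent inhibition calculated relative to DMSO control.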

T2 sequence (P35968 834-1162 limits assumed): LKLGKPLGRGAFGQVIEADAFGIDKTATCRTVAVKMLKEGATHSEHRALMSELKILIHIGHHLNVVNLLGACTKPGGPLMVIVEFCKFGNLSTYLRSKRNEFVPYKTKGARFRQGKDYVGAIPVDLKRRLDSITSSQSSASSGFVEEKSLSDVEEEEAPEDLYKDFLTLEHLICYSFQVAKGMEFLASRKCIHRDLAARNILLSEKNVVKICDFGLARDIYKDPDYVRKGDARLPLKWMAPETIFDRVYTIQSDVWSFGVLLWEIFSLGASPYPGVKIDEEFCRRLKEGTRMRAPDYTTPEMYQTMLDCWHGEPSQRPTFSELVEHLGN
T3 sequence (Q96GD4 whole entry): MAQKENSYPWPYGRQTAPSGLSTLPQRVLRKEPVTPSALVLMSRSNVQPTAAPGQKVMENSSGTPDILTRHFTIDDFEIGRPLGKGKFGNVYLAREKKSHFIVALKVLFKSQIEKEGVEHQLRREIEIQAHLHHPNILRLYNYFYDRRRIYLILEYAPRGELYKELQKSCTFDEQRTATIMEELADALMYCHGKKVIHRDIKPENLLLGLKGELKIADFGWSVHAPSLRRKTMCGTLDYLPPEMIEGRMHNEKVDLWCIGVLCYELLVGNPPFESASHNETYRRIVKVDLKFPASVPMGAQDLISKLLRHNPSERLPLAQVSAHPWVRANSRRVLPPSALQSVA

IC50 (Aurora A kinase) [nM] | inhibition at 1 µM (Aurora A kinase) [%] | inhibition at 0.5 µM (VEGFR2 kinase) [%] | inhibition at 1 µM (Aurora B kinase) [%] | inhibition at 0.1 µM (Flt3 kinase) [%] | IC50 (Aurora B kinase) [nM] | SMILES
252 | 83.6 | 73.8 | 12.8 | 13.9 |  | CC(=O)Nc1ccc2c(c1)/C(=C/c1[nH]c3c(c1CCC(=O)O)C(=O)CCC3)C(=O)N2 [DCB-70104, (Z)-5-acetamido-3-((3-carboxyethyl-4-oxo-4,5,6,7-tetrahydro-1H-indol-2-yl)methylene)indolin-2-one]
8.1 | 99 | 46.4 | 70.6 | 10.2 | 292 | O=C(O)CCc1c(/C=C2\C(=O)Nc3ccc(S(=O)(=O)N4CCc5ccccc54)cc32)[nH]c2c1C(=O)CCC2 [DCB-70106, (Z)-5-(indolin-1-ylsulfonyl)-3-((3-carboxyethyl-4-oxo-4,5,6,7-tetrahydro-1H-indol-2-yl)methylene)indolin-2-one]
 | 36 | 48.8 | 23.7 | 10.8 |  | CN1CCN(S(=O)(=O)c2ccc3c(c2)/C(=C/c2[nH]c4c(c2CCC(=O)O)C(=O)CCC4)C(=O)N3)CC1 [DCB-70107, (Z)-5-(4-methylpiperazin-1-ylsunfonyl)-3-((3-carboxyethyl-4-oxo-4,5,6,7-tetrahydro-1H-indol-2-yl)methylene)indolin-2-one hydrochloride]
 | 7.5 | 14.1 | 6.8 | 11.8 |  | CCOC(=O)CCc1c(/C=C2\C(=O)Nc3ccc(-c4ccc(F)cc4)cc32)[nH]c2c1C(=O)CCC2 [DCB-70108, (Z)-5-(4-fluorophenyl)-3-((3-(3-ethoxy-3-oxopropyl)-4-oxo-4,5,6,7-tetrahydro-1H-indol-2-yl)methylene)indolin-2-one]
 | 69.1 | 58.6 | 1.8 | 19.2 |  | O=C(O)CCc1c(/C=C2\C(=O)Nc3ccc(-c4ccc(F)cc4)cc32)[nH]c2c1C(=O)CCC2 [DCB-70109, (Z)-5-(4-fluorophenyl)-3-((3-carboxyethyl-4-oxo-4,5,6,7-tetrahydro-1H-indol-2-yl)methylene)indolin-2-one]
14 | 99.9 | 22.6 | 60.7 | 12 | 494 | O=C(O)CCc1c(/C=C2\C(=O)Nc3ccc(S(=O)(=O)N4CCCCC4)cc32)[nH]c2c1C(=O)CCC2 [DCB-70114, (Z)-5-(piperidin-1-ylsulfonyl)-3-((3-carboxyethyl-4-oxo-4,5,6,7-tetrahydro-1H-indol-2-yl)methylene)indolin-2-one]
 | 99.4 | 52.2 | 32.5 | 26.8 |  | C=CS(=O)(=O)c1ccc2c(c1)/C(=C/c1[nH]c3c(c1CCC(=O)O)C(=O)CCC3)C(=O)N2 [DCB-70115, (Z)-5-vinylsulfonyl-3-((3-carboxyethyl-4-oxo-4,5,6,7-tetrahydro-1H-indol-2-yl)methylene)indolin-2-one]
 | 100 | 47.9 | 7 | 19.4 |  | CCS(=O)(=O)c1ccc2c(c1)/C(=C/c1[nH]c3c(c1CCC(=O)O)C(=O)CCC3)C(=O)N2 [DCB-70116, (Z)-5-ethylsulfonyl-3-((3-carboxyethyl-4-oxo-4,5,6,7-tetrahydro-1H-indol-2-yl)methylene)indolin-2-one]
 | 34.9 | 43.3 | 5.3 | 48.3 |  | CNS(=O)(=O)c1ccc2c(c1)/C(=C/c1[nH]c3c(c1CCC(=O)N1CCN(C)CC1)C(=O)CCC3)C(=O)N2 [DCB-70117]
 | 81.2 | 51.9 | 3.2 | 12.7 |  | CCOC(=O)CCc1c(/C=C2\C(=O)Nc3ccc(NS(=O)(=O)CC)cc32)[nH]c2c1C(=O)CCC2 [DCB-70118, (Z)-5-ethylsulfonamido-3-((3-(3-ethoxy-3-oxopropyl)-4-oxo-4,5,6,7-tetrahydro-1H-indol-2-yl)methylene)indolin-2-one]
 | 95.4 | 33.9 | 7.3 | -3.9 |  | CCS(=O)(=O)Nc1ccc2c(c1)/C(=C/c1[nH]c3c(c1CCC(=O)O)C(=O)CCC3)C(=O)N2 [DCB-70119, (Z)-5-ethylsulfonamido-3-((3-carboxyethyl-4-oxo-4,5,6,7-tetrahydro-1H-indol-2-yl)methylene)indolin-2-one]
 | 50.5 | 17.6 | 21.5 | 31.2 |  | CN1CCN(C(=O)CCc2c(/C=C3\C(=O)Nc4ccc(S(=O)(=O)N5CCCC5)cc43)[nH]c3c2C(=O)CCC3)CC1 [DCB-70120, (Z)-3-((3-(3-(4-methylpiperazin-l-yl)-3-oxopropyl)-4-oxo-4,5,6,7-tetrahydro-1H-indol-2-yl)methylene)-5-(pyrrolidin-1-ylsulfonyl)indolin-2-one]
 | 97.9 | 19.6 | 46.5 | 14.6 | 1720 | CN(C)S(=O)(=O)c1ccc2c(c1)/C(=C/c1[nH]c3c(c1CCC(=O)O)C(=O)CCC3)C(=O)N2 [DCB-70121, (Z)-5-(N,N-dimethylsulfamoyl)-3-((3-carboxyethyl-4-oxo-4,5,6,7-tetrahydro-1H-indol-2-yl)methylene)indolin-2-one]
 | 34.1 | 84 | 8.3 | 82.2 |  | CCOC(=O)CCc1c(/C=C2\C(=O)Nc3cc(F)ccc32)[nH]c2c1C(=O)CCC2 [DCB-70122, (Z)-6-fluoro-3-((3-(3-ethoxy-3-oxopropyl)-4-oxo-4,5,6,7-tetrahydro-1H-indol-2-yl)methylene)indolin-2-one]
 | 78.1 | 90.8 | 13.3 | 61.1 |  | O=C(O)CCc1c(/C=C2\C(=O)Nc3cc(F)ccc32)[nH]c2c1C(=O)CCC2 [DCB-70123, (Z)-6-fluoro-3-((3-carboxyethyl-4-oxo-4,5,6,7-tetrahydro-1H-indol-2-yl)methylene)indolin-2-one]
 | 11.9 | 72.5 | 1.4 | 88.6 |  | CCN(CC)C(=O)CCc1c(/C=C2\C(=O)Nc3ccc(F)cc32)[nH]c2c1C(=O)CCC2 [DCB-70124, (Z)-N,N-diethyl-3-(2-((5-fluoro-2-oxoindolin-3-ylidene)methyl)-4-oxo-4,5,6,7-tetrahydro-1H-indol-3-yl)propanamide]
 | 39.7 | 83.4 | -0.1 | 94.6 |  | O=C1Nc2ccc(F)cc2/C1=C/c1[nH]c2c(c1CCC(=O)N1CCOCC1)C(=O)CCC2 [DCB-70125, (Z)-5-fluoro-3-((3-(3-morpholino-3-oxopropyl)-4-oxo-4,5,6,7-tetrahydro-1H-indol-2-yl)methylene)indolin-2-one]
 | 5.1 | 19.3 | 13.5 | 3.2 |  | CCOC(=O)CCc1c(/C=C2\C(=O)Nc3cc(-c4ccc5c(c4)OCO5)ccc32)[nH]c2c1C(=O)CCC2 [DCB-70128, (Z)-ethyl 3-(2-((6-(benzo[d][1,3]dioxol-5-yl)-2-oxoindolin-3-ylidene)methyl)-4-oxo-4,5,6,7-tetrahydro-1H-indol-3-yl)propanoate]
 | 15.6 | 88 | 5.8 | 12.3 |  | CCOC(=O)CCc1c(/C=C2\C(=O)Nc3ccc(NC(=O)Nc4cccc5ccccc45)cc32)[nH]c2c1C(=O)CCC2 [DCB-70129, (Z)-ethyl 3-(2-((5-(3-naphthalen-1-ylureido)-2-oxoindolin-3-ylidene)methyl)-4-oxo-4,5,6,7-tetrahydro-1H-indol-3-yl)propanoate]
